In article PMC7710018, “Restoration of motor learning in a mouse model of Rett syndrome following long-term treatment with a novel small-molecule activator of TrkB” (Disease Models & Mechanisms, 2020):
Like-named read-outs stand apart in the source and are kept apart here.

Tests used:
[1] = system: 55 pharmacologically relevant receptors; parameters: method as in Massa et al., 2010; settings: standard screening concentration; ref Massa et al., 2010; cited from earlier work
KV channel = experiment: Cerep ExpresSProfile radioligand binding; settings: 10 micromolar; antagonist radioligand
Method: (§1) To evaluate the relative binding specificity of LM22A-4 ([Massa et al., 2010]) and PTX-BD4-3, binding to a broad range of 55 pharmacologically relevant receptors, including numerous neurotransmitter and G-protein coupled receptors was assessed using standard radioligand competition binding assays (ExpressSProfile) performed by Cerep, Inc. (Seattle, WA, USA). In addition, ADME-Tox analysis was performed by Cerep, Inc. All experimental conditions are described on the Cerep website (www.cerep.fr). […]
(§2) Table S1. In vitro binding assays. An ExpresSProfile screen of PTX-BD4-3 binding to a panel of pharmacologically relevant receptors was conducted by Cerep, Inc.
(§3) (Eurofins Panlabs, MO). The results are expressed as percent inhibition of control specific binding obtained in the presence of 10 micromolar PTX-BD4-3. In this assay, values below 50% indicate no specific binding of PTX-BD4-3. The assay was negative for PTX-BD4-3 binding to all of the 55 receptors in the screen.
(§4) (also on this page, place not known: 2B 5‐HT 3 5‐HT 5a 5‐HT 6 5‐HT 7 (agonis t VPAC 1 V 1 Ca 2+ K V SK Ca Na + Cl ‐ 5‐HT Disease Models & Mechanisms: doi:10.1242/dmm.044685: Supplementary information Disease Models & Mechanisms • Supplementary information)

M2 (h) = molecular target: T1, M2 (h) (Homo sapiens, UniProt P08172); experiment: Cerep ExpresSProfile radioligand binding; settings: 10 micromolar; antagonist radioligand; read-out: % Inhibition of Control Specific Binding 1st
T1 construct: purchased Cerep (ExpresSProfile)
T1 sequence (P08172 whole entry): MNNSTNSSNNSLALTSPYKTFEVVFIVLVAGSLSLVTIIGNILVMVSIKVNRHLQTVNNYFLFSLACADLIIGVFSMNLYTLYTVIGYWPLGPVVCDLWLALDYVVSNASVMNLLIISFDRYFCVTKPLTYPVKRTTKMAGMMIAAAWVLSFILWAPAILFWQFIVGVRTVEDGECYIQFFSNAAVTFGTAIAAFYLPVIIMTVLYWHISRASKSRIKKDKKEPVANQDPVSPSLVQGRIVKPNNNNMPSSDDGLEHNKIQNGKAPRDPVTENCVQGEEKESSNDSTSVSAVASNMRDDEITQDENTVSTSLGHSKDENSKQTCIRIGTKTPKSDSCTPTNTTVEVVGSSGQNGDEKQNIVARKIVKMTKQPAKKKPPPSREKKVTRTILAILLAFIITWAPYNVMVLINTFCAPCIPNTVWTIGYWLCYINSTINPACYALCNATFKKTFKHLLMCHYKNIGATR
Method: as §1, §2, §3, §4

5-HT7 (h) = molecular target: T2, 5-HT7 (h) (Homo sapiens, UniProt P34969); experiment: Cerep ExpresSProfile radioligand binding; settings: 10 micromolar, agonist radioligand
T2 construct: Cerep, Inc. (contract screen)
T2 sequence (P34969 whole entry): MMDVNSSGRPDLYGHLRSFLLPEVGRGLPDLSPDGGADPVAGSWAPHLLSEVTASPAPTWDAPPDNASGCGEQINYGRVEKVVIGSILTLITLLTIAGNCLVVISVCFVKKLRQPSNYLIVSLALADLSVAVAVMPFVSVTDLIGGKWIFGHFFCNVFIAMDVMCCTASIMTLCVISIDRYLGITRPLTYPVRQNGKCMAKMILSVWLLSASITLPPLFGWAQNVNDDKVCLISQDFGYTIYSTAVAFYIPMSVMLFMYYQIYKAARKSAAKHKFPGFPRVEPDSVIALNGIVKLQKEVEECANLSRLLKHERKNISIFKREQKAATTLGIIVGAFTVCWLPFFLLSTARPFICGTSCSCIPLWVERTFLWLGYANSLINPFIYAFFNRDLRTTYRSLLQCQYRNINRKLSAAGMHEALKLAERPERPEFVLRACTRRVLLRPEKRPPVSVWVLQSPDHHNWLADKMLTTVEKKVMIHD
Method: as §1, §2, §3, §4

δ2 (DOP) (h) = molecular target: T3, δ2 (DOP) (h) (Homo sapiens, UniProt P41143); experiment: Cerep ExpresSProfile radioligand binding; settings: 10 micromolar; agonist radioligand; read-out: % Inhibition of Control Specific Binding 2nd
T3 construct: purchased Cerep (ExpresSProfile)
T3 sequence (P41143 whole entry): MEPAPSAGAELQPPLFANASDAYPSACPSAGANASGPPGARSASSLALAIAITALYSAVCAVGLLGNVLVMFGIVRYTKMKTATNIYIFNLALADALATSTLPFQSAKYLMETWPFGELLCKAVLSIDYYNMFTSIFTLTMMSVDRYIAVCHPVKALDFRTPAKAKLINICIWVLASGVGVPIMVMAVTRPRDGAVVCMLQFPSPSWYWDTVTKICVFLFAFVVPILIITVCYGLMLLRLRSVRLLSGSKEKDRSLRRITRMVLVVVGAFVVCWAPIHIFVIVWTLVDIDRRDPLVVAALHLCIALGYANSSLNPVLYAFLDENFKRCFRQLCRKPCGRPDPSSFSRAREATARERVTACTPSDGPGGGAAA
Method: as §1, §2, §3, §4

dopamine transporter (h) = molecular target: T4, dopamine transporter (h) (Homo sapiens, UniProt Q01959); experiment: Cerep ExpresSProfile radioligand binding; settings: 10 micromolar, antagonist radioligand
T4 construct: Cerep, Inc. (contract screen)
T4 sequence (Q01959 whole entry): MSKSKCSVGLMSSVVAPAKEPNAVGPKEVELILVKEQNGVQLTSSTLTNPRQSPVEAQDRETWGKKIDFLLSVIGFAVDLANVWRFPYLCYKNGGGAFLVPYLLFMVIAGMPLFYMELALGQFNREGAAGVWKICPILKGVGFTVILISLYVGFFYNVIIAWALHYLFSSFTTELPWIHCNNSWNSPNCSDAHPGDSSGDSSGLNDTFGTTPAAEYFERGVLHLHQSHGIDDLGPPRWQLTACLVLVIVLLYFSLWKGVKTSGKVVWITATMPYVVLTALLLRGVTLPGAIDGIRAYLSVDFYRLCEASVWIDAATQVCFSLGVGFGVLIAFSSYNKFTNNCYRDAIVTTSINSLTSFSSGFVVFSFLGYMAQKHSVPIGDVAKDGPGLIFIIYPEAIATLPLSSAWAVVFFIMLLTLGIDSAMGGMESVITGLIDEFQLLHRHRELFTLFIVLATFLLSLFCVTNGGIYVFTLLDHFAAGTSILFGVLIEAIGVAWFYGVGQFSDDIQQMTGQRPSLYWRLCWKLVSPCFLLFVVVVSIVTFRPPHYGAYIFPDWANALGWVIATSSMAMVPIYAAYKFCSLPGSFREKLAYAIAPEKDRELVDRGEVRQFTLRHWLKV
Method: as §1, §2, §3, §4

M1 (h) = molecular target: T5, M1 (h) (Homo sapiens, UniProt P11229); experiment: Cerep ExpresSProfile radioligand binding; settings: 10 micromolar, antagonist radioligand
T5 construct: purchased Cerep (ExpresSProfile)
T5 sequence (P11229 1-460): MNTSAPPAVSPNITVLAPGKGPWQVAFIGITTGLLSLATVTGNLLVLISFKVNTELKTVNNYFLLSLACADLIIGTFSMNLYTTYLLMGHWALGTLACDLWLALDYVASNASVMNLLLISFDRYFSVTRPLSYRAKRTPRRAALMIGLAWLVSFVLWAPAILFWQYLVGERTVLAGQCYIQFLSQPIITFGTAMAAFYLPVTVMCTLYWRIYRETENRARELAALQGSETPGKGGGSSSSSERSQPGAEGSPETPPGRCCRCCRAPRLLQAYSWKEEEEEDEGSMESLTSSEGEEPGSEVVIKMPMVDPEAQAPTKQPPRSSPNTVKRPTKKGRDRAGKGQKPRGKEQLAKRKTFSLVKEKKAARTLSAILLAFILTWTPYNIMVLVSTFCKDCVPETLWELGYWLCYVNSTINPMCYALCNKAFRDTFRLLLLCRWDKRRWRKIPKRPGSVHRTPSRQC
Method: as §1, §2, §3, §4

5-HT transporter (h) = molecular target: T6, 5-HT transporter (h) (Homo sapiens, UniProt P31645); experiment: Cerep ExpresSProfile radioligand binding; settings: 10 micromolar, antagonist radioligand
T6 construct: Cerep, Inc. (contract screen)
T6 sequence (P31645 whole entry): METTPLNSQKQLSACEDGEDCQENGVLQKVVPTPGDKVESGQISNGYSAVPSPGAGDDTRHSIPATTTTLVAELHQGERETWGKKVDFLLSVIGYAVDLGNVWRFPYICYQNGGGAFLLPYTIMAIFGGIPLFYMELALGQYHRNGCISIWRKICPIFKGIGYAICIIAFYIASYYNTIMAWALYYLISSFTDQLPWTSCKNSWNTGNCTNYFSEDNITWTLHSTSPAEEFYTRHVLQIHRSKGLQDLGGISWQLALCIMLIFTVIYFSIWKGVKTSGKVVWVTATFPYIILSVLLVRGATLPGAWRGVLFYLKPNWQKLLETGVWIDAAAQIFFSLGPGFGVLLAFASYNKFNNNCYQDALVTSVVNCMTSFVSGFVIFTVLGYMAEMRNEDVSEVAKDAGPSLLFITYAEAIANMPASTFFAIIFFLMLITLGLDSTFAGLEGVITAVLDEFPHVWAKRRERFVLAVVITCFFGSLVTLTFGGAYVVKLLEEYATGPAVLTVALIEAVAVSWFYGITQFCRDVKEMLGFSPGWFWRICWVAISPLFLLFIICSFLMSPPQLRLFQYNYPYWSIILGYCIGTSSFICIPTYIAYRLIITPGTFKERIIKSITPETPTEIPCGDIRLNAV
Method: as §1, §2, §3, §4

κ (KOP) = molecular target: T7, κ (KOP) (Rattus norvegicus, UniProt P34975); experiment: Cerep ExpresSProfile radioligand binding; settings: 10 micromolar; agonist radioligand; read-out: % Inhibition of Control Specific Binding 1st
T7 construct: purchased Cerep (ExpresSProfile)
T7 sequence (P34975 whole entry): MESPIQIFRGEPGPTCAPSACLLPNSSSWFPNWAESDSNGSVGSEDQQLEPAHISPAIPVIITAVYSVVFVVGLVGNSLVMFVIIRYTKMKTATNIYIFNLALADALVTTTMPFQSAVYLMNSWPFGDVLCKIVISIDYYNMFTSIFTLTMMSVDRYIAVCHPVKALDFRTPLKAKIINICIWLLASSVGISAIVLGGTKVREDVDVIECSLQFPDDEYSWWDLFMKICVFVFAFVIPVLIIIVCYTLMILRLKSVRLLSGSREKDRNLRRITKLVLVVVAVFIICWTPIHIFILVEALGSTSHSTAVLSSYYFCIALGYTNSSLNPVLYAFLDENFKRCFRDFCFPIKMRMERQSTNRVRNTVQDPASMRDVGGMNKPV
Method: as §1, §2, §3, §4

NK3 (h) = molecular target: T8, NK3 (h) (Homo sapiens, UniProt P29371); experiment: Cerep ExpresSProfile radioligand binding; settings: 10 micromolar; antagonist radioligand; read-out: % Inhibition of Control Specific Binding 2nd
T8 construct: purchased Cerep (ExpresSProfile)
T8 sequence (P29371 whole entry): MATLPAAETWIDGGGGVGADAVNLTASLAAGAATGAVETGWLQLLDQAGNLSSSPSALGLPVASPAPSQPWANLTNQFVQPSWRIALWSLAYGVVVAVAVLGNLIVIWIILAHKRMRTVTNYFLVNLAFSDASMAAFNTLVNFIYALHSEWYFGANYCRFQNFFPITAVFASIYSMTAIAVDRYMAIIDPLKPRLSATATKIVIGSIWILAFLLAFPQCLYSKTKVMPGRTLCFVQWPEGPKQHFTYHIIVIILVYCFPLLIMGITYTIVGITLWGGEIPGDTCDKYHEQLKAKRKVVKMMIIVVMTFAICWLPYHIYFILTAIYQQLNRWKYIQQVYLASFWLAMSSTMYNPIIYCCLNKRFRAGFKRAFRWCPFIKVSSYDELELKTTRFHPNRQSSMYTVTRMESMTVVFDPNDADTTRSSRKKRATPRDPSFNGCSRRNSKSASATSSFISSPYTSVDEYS
Method: as §1, §2, §3, §4

Cl- channel (GABA-gated) = experiment: Cerep ExpresSProfile radioligand binding; settings: 10 micromolar; antagonist radioligand
Method: as §1, §2, §3, §4

β1 (h) = molecular target: T9, β1 (h) (Homo sapiens, UniProt P08588); experiment: Cerep ExpresSProfile radioligand binding; settings: 10 micromolar; agonist radioligand; read-out: % Inhibition of Control Specific Binding 1st
T9 construct: purchased Cerep (ExpresSProfile)
T9 sequence (P08588 whole entry): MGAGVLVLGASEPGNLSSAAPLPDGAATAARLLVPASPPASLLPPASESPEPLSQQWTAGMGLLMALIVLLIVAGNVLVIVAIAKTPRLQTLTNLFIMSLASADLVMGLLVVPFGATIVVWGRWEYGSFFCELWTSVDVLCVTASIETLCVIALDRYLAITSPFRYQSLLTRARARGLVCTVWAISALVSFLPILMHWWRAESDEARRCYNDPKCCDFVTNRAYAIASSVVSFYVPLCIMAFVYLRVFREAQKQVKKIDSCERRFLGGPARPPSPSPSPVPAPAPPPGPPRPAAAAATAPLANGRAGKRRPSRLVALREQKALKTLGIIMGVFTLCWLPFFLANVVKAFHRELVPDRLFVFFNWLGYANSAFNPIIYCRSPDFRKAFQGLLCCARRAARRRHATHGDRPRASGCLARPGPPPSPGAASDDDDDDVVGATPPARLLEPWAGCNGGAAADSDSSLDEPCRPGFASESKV
Method: as §1, §2, §3, §4

NOP (ORL1) (h) = molecular target: T10, NOP (ORL1) (h) (Homo sapiens, UniProt P41146); experiment: Cerep ExpresSProfile radioligand binding; settings: 10 micromolar, agonist radioligand
T10 construct: purchased Cerep (ExpresSProfile)
T10 sequence (P41146 whole entry): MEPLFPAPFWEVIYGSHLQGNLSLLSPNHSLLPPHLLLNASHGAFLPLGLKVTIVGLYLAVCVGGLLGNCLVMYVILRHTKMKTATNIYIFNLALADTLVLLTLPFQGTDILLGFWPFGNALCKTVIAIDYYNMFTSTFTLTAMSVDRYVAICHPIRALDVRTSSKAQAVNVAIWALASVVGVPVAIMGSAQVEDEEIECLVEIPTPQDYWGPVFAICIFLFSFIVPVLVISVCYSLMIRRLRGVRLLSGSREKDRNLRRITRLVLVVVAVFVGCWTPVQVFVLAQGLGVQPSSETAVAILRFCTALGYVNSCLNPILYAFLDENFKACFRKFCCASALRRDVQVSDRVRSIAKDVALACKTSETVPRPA
Method: as §1, §2, §3, §4

[2] = system: heterozygous (Het) female Mecp2 mutant mice; experiment: Forelimb grip strength; assay type: in vivo, mouse; settings: chronic intermittent 5 mg/kg q72 h
Method: This improvement is consistent with previous reports of motor learning in response to repeated exposure to Rotarod testing ([Buitrago et al., 2004]). […] To investigate this possibility, we evaluated Rotarod performance in additional cohorts of animals that received chronic intermittent dosing with PTX-BD4-3 and only one exposure to Rotarod testing, at the end of the 8-week treatment period (Fig. 7A).
Fig. 7. […] (A) Repeated dosing with PTX-BD4-3 (5 mg/kg, q72 h) for 8 weeks had no impact on latency to fall in animals that were tested only at the end of the 8-week treatment period. Rotarod performance was measured over three successive trials, 24 h after the last dose. n=15-16 subjects derived from two independent experiments. (B) Het mice show no deficit in forelimb grip strength compared to Wt controls, and no increase in grip strength in response to treatment with PTX-BD4-3. n=9-20 subjects derived from two independent experiments. *P<0.05, **P<0.001 compared to saline-treated Wt mice. One-way ANOVA with LSD post hoc analysis. Black, saline-treated Wt mice; gray, saline-treated Het mice; red, PTX-BD4-3-treated Het mice.

[3] = system: heterozygous (Het) female Mecp2 mutant mice; experiment: Rotarod; assay type: in vivo, mouse; settings: 5 mg/kg q72 h
Method: Small-molecule compounds were diluted in saline and delivered by i.p. injection. To define the acute effects of single drug treatments, behavioral testing was initiated 1 h after dosing. Durable effects of single drug treatments were evaluated 24 h after dosing. […]
A Rotarod apparatus (Columbus Instruments) was used test to assess sensorimotor coordination. Animals were placed on a rotating rod at a constant speed of 4 rpm for 1 min of acclimation. […] Latency of the animal to fall was recorded. The test was repeated three times, with each trial separated by 15 min, to assess potential learning components of any observed phenotypes.

[4] = read-out: % Inhibition of Control Specific Binding 1st
[5] = read-out: % Inhibition of Control Specific Binding 2nd
[6] = read-out: % Inhibition of Control Specific Binding Mean

O=C(NCCO)c1cc(C(=O)NCCO)cc(C(=O)NCCO)c1 [LM22A-4, N,N′,N′′-tris(2-hydroxyethyl)-1,3,5-benzenetricarboxamide, reference compound]
binding within the panel of 55 receptors [1]: no significant binding

COCCN(C)C(=O)c1cc(C(=O)N(C)CCOC)cc(C(=O)N(C)CCOC)c1 [PTX-BD4-3, benzene-1,3,5-tricarboxylic acid tris-[(2-methoxy-ethyl)-methyl-amide]]
% Inhibition of Control Specific Binding 1st (KV channel): 6.4% | inhibition at 10 µM (M2 (h)): 6.3% | inhibition at 10 µM (5-HT7 (h); [4]): 8.1% | inhibition at 10 µM (5-HT7 (h); [5]): 14.7% | inhibition at 10 µM (5-HT7 (h); [6]): 11.4% | inhibition at 10 µM (δ2 (DOP) (h)): 1.9% | inhibition at 10 µM (dopamine transporter (h); [4]): 2.2% | inhibition at 10 µM (dopamine transporter (h); [5]): 0.9% | inhibition at 10 µM (dopamine transporter (h); [6]): 1.6% | inhibition at 10 µM (M1 (h); [4]): 5% | inhibition at 10 µM (M1 (h); [5]): 15% | inhibition at 10 µM (M1 (h); [6]): 10% | inhibition at 10 µM (5-HT transporter (h); [4]): 16.3% | inhibition at 10 µM (5-HT transporter (h); [5]): 5.5% | inhibition at 10 µM (5-HT transporter (h); [6]): 10.9% | inhibition at 10 µM (κ (KOP)): 0.9% | inhibition at 10 µM (NK3 (h)): 0.4% | % Inhibition of Control Specific Binding 1st (Cl- channel (GABA-gated)): 2.7% | inhibition at 10 µM (β1 (h)): 3.7% | inhibition at 10 µM (NOP (ORL1) (h); [5]): 6.3% | inhibition at 10 µM (NOP (ORL1) (h); [6]): 0.1% | forelimb grip strength [2]: no gain in grip strength | Rotarod performance (latency to fall) ([3]; 2 weeks, repeated testing, 24 h after last dose): as impaired as their saline-treated Het littermates | Rotarod performance (latency to fall) ([3]; 8 weeks, repeated testing at 2, 4, 8 weeks, 24 h after last dose): comparable to that of saline-treated Wt controls | Rotarod performance (latency to fall) ([3]; 8 weeks, tested only at the end of treatment, vs saline-treated Het): no improvement
